In this experiment the test system is human cutaneous fibroblasts. The experiment is described as follows: Intracellular glutathione (GSH) in dermal fibroblasts irradiated with UVA. The format is cell-based. The following applies: 5 mM, 15 J/cm^2 UVA. As for the experimental part: Dermal fibroblasts were inoculated in 60 mm petri dishes. The cells were pre-treated for 18 hours with 5 mM rice peptides or N-acetyl-cysteine (NAC=reference antioxidant molecule) and then irradiated at a dose of 15 J/cm^2 UVA. After irradiation, the fibroblasts were incubated for an additional 3 h at 37° C.
At the end of the treatment, two series of samples were collected in order to evaluate: • a. Total quantity of proteins according to the Lowry method. • b. The ratio of intracellular glutathione by assay (commercial kit).

Molecules are shown by their SMILES.

Data on one molecule can be found in patent US8231916B2, “Use of a rice protein hydrolysate as pigmenting active principle” (Laboratoires Expanscience, priority 2006, dated 2012).

On to `CC(=O)N[C@@H](CS)C(=O)O` [NAC, N-acetyl-cysteine], for which the “GSH (μmol/g proteins)” value was 28.209 μmol/g proteins and the “GSH, % increase compared to irradiated control cells” value is listed as 29%. Also, the “GSH” value (18 hours pre-treatment) worked out at 21.10 µM.
